This is an account of results in patent publication US8921563B2, “1-[(4-hydroxypiperidin-4-yl)methyl]pyridin-2(1H)-one derivatives, preparation methods and uses thereof” (Institue of Pharmacology and Toxicology Academy of Military …, priority 2010, dated 2014).

The structures appear in SMILES notation.

In test [1] the test system is mice. The test is described as follows: Novel object recognition test in mice. The test is classed as in vivo. Particulars: repeated daily, tested day 8, mice. Here is the method:
Novel object recognition test is a cognitive behavior model established by Lima, et al.
1) Experimental device: a white Perspex box (60×60×16 cm), two completely identical objects, and one completely different object.
2) Experimental method: Male Kunming mice weighing 20-25 g. The mice were intragastrically administered with YL-0911 or vehicle (distilled water) for 5 days. On day 6, after treatment with YL-0911 or vehicle, each mouse was placed into the Perspex box at the same place for 5 min as habituation. On day 7, the mice were administered YL-0911 or vehicle and then individually placed in the Perspex box at the same place containing two identical objects located in the two diagonal corners for 5 minutes. On day 8, mice were tested for memory using the same procedure as day 7 except that one of the familiar objects was replaced with a novel object.

In test [2] the target is T1, 5-HT1A receptor (Rattus norvegicus, UniProt P19327).
T1 construct: the content of 5-HT1A receptor extracted from rat hippocampi was 5.5 mg/ml; from tissue; host or cells: Wistar rat hippocampus, membrane preparation
T1 sequence (P19327 1-422): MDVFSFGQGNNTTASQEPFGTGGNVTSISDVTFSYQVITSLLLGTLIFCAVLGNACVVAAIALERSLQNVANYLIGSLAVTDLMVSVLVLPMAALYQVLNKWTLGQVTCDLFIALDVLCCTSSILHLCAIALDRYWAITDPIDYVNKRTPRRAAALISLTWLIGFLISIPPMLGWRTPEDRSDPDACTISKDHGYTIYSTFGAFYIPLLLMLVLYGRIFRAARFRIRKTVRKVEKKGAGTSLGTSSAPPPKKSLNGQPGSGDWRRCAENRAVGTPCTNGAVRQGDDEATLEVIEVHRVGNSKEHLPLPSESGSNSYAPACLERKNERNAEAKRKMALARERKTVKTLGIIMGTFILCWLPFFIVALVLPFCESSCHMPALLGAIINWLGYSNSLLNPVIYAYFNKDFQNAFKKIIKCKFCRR
The test is described as follows: Screening: competitive binding test to 5-HT1A receptor using [3H]-8-OH-DPAT, rat hippocampi membrane protein. Particulars: [3H]-8-OH-DPAT 1.28 nM, read-out: Inhibition percent (I %), competitive binding to 5-HT1A receptor. How it is done: 1.4.1 Screening of YL Series Compounds
(1) Preparation of Membrane Proteins in Rat Hippocampi
Wister rats, 220-260 g, female and male, were sacrificed by decapitation and hippocampis were rapidly separated, weighed and to which homogenized in 10 times volume of Tris-HCl buffer solution (50 mM Tris-HCl, 5 mM MgCl2,1 mM EDTA, 0.5% (WN) BSA, 1 mM PMSF, 3 μg/ml proteinase inhibitor, 0.1% NaN3, 0.32M sucrose, pH 7.4) at 15,000 rpm for 30 s, total 5 times. The homogenate was centrifuged under 1000×g for 10 minutes and the supernatant was then centrifuged under 39000×g for 10 minutes. The precipitate was collected, and resuspended with 10 times volume of Tris-HCl buffer solution (pH 7.4) relative to the original weight, then centrifuged under 39000×g for 10 minutes. The precipitate was washed with the same buffer solution, centrifuged under 39000×g for 10 minutes and the precipitate was suspended with the above buffer solution. After sub-packaged (the whole operation procedures were performed under ice bath), the product was stored at −80° C. The protein concentration was measured by Lowrry method.
1) In the 5-HT1A receptor binding test, tubes are firstly placed under reaction condition of 25° C.
2) To all of the tubes, the receptor proteins extracted from rat hippocampi in an amount of 100 μg were added in sequence.
4) To the test tubes, 30 μl of the compound in corresponding concentrations (used for screening: 10^−5, 10^−7, 10^−9M) was added in sequence.
6) Tris-HCl buffer solution (50 mM Tris-HCl, 1 mM EDTA, 5 mM MgCl2, 0.1 mM PMSF, 0.1% NaN3, pH 7.4) was supplied to all of the tubes to reach a volume of 300 μl.
7) The reaction was performed at 25° C. for 1 h.
8) Then samples were applied to 49-type glass fibre filter, vacuum suction filtered, then washed three times with 2 ml ice-cold Tris-HCl buffer solution (50 mM Tris-HCl buffer solution, 1 mM EDTA, 5 mM MgCl2, 1 mM PMSF, 0.1% NaN3, 3 μg/ml proteinase inhibitor, pH 7.4). […] The radio-activity was measured by a scintillation counter.

In general, inhibition refers to the change of the read-out against control, counted positive when it falls. With `O=c1ccccn1CC1(O)CCN(Cc2ccccc2)CC1` [Compound 1, 1-[(1-benzyl-4-hydroxypiperidin-4-yl)-methyl]-pyridin-2(1H)-one], the Recognition index is 59.95 ± 2.74 in test [1] (0.625 mg/kg p.o.) and 64.76 ± 5.02 in test [1] (1.25 mg/kg p.o.). The inhibition at 10 µM in test [2] (compound 10^-5 mol/L) is 100%. The inhibition at 0.1 µM in test [2] (compound 10^-7 mol/L) worked out at 85%.
